Key:
HPSE [1] = molecular target: T1, HPSE (Homo sapiens, UniProt Q9Y251); assay: fluorescent ABP labelling of whole cell lysates; format: biochemical
T1 construct: fluorescent ABPs 7, 8 and 9 were applied to whole cell lysates from a panel of human cancer cell lines; endogenous in cells; host or cells: U87, PANC1, SKBR3, MDA-MB-231, HT1080, platelet lysates
T1 sequence (Q9Y251 36-543): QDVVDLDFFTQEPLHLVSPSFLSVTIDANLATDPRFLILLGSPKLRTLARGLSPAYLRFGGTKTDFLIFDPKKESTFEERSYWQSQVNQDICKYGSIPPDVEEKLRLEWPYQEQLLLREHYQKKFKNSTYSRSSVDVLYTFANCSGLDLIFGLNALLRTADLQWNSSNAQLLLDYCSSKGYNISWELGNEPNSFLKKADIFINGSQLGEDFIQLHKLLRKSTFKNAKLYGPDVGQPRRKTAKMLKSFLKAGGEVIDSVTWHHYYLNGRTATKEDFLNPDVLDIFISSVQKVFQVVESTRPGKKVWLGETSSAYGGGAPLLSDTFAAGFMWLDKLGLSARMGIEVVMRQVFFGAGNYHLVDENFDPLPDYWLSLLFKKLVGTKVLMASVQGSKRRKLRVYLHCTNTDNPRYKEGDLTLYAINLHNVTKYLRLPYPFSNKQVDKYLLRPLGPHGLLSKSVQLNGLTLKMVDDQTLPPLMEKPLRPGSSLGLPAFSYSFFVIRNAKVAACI
Protocol: ABP labelling reactions were carried out in Mcllvaine buffer (pH 5.5), 300 mM NaCl. For recombinant proteins 200 fmol of EcGH2, BpHep, AcGH79, HPSE or proHPSE was used (20 nM in 10 μl final reaction volume). For labeling cell lysates, 4-20 μg total protein was used. Labeling reactions were initiated by the addition of ABP compounds 7, 8 or 9 to a final concentration of 100 nM (unless otherwise specified), before incubation for 30 min at 37° C. with shaking. Following labeling, samples were denatured by boiling with Laemmli buffer for 5 min and resolved by SDS-PAGE. Gels were scanned using Typhoon-5 laser scanner platform (Cytiva), using the λEX 635 nm laser and 670BP30 emission filter. For competitive ABPP (cABPP) experiments, protein mixtures were preincubated with inhibitor (or buffer only control) for 1 h at 37° C. with shaking, before the addition of 7 to a final concentration of 100 nM, and subsequent incubation for 30 min at 37° C. with shaking. SDS-PAGE and analysis steps were carried out as above. For quantitative measurements, fluorescently labeled band intensities were calculated using Imagequant (Cytiva), and normalized to the corresponding band in the inhibitor free control lane. cABPP plots were prepared and analyzed using SigmaPlot 14.0 (Systat). […]

AcGH79 = AcGH79 (Acidobacterium capsulatum, UniProt C1F2K5); assay: in-gel competitive ABPP, recombinant AcGH79; format: biochemical, A. capsulatum; settings: Cy5-tagged β-D-glucuronidase ABP read-out, at the tested enzyme concentration
Protocol: (§1) ABP labelling reactions were carried out in Mcllvaine buffer (pH 5.5), 300 mM NaCl. For recombinant proteins 200 fmol of EcGH2, BpHep, AcGH79, HPSE or proHPSE was used (20 nM in 10 μl final reaction volume). For labeling cell lysates, 4-20 μg total protein was used. Labeling reactions were initiated by the addition of ABP compounds 7, 8 or 9 to a final concentration of 100 nM (unless otherwise specified), before incubation for 30 min at 37° C. with shaking. Following labeling, samples were denatured by boiling with Laemmli buffer for 5 min and resolved by SDS-PAGE. Gels were scanned using Typhoon-5 laser scanner platform (Cytiva), using the λEX 635 nm laser and 670BP30 emission filter. For competitive ABPP (cABPP) experiments, protein mixtures were preincubated with inhibitor (or buffer only control) for 1 h at 37° C. with shaking, before the addition of 7 to a final concentration of 100 nM, and subsequent incubation for 30 min at 37° C. with shaking. SDS-PAGE and analysis steps were carried out as above. For quantitative measurements, fluorescently labeled band intensities were calculated using Imagequant (Cytiva), and normalized to the corresponding band in the inhibitor free control lane. cABPP plots were prepared and analyzed using SigmaPlot 14.0 (Systat).
(§2) Competitive activity of compounds 2, 12 and 13 were investigated using cABPP Assay 2.

rHPSE = molecular target: T2, rHPSE (Homo sapiens, UniProt Q9Y251); assay: in-gel competitive ABPP, recombinant HPSE; format: biochemical; settings: for IC50: apparent IC50, in-gel competitive ABPP-based assay, read-out: In vitro IC50 rHPSE
T2 sequence (Q9Y251 36-109 limits assumed): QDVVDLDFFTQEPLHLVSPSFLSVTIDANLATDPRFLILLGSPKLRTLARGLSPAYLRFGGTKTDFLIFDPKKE
T2 sequence (Q9Y251 158-543 limits assumed): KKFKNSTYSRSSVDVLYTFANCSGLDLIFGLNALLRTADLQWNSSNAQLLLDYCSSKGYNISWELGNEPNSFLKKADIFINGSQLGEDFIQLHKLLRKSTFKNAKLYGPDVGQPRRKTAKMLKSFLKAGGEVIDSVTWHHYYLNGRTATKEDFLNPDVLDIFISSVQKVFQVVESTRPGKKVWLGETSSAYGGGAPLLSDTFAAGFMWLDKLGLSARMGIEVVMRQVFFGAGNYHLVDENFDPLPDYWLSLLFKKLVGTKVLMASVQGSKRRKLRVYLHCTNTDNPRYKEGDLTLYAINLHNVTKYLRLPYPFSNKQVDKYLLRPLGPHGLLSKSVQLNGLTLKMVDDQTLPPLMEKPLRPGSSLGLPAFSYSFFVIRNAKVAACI
Protocol: as §1, §2
To gain insight into HPSE structure-activity relationships, apparent HPSE inhibition was tested for cyclitol 12, its disaccharidic analogue 13 and parent HPSE inhibitor 2 (FIG. 7a). […] Conversely, 13 could inactivate rHPSE down to 2 μM inhibitor concentration similar to 2.

HPSE (platelet) = molecular target: T3, HPSE (platelet) (Homo sapiens, UniProt Q9Y251); assay: cABPP Assay 2, platelet lysates, HPSE; format: biochemical; settings: for IC50: apparent IC50, in-gel competitive ABPP-based assay, platelet lysate, read-out: In vitro IC50 HPSE (platelet); for inhibitor concentration down to which HPSE signal is abrogated: platelet lysates, preincubation with inhibitor
T3 construct: endogenous in cells; host or cells: human platelet lysates
T3 sequence (Q9Y251 158-543 limits assumed): T2 sequence (Q9Y251 158-543 limits assumed)
T3 sequence (Q9Y251 36-109 limits assumed): T2 sequence (Q9Y251 36-109 limits assumed)
Protocol: (§3) For further competitive ABPP studies, a working protein mixture was prepared by mixing the platelet lysates (87.5 μL), buffer (pH 5.0, 150 mM, 157.5 μL) and 3 M NaCl solution (35 μL). The enzymatic reactions were carried out at a constant concentration of read-out 7 (100 nM, final). For each inhibitor 2, 12 and 13, triplicate sets of ten 0.5 mL low protein binding Eppendorf tubes were prepared. Working solutions of each inhibitor (1% DMSO (w/v), 5 μL) in a range of ten concentrations (100, 50, 25, 12.5, 6.3, 3.1, 1.6, 0.8, 0.4, 0 μM) were prepared with MilliQ water and kept on ice. The working protein mixture (8 μL) was added in each protein low binding 0.5 mL Eppendorf tube, and 1 μL of inhibitor solution was added while on ice.
(§4) Further cABPP studies were undertaken using platelet lysates to provide a more physiologically realistic environment. Platelet lysates contain complex mixtures of overlapping enzyme activities, including both endo- and exo-β-glucuronidases HPSE and GUSB respectively, thus provide a challenging environment to test inhibitor specificity.

GUSB = molecular target: T4, GUSB (Homo sapiens, UniProt P08236); assay: cABPP Assay 2, platelet lysates, GUSB; format: biochemical; settings: preincubation with inhibitor
T4 construct: Platelet lysates contain complex mixtures of overlapping enzyme activities, including both endo- and exo-β-glucuronidases HPSE and GUSB; endogenous in cells; host or cells: human platelet lysates
T4 sequence (P08236 23-651): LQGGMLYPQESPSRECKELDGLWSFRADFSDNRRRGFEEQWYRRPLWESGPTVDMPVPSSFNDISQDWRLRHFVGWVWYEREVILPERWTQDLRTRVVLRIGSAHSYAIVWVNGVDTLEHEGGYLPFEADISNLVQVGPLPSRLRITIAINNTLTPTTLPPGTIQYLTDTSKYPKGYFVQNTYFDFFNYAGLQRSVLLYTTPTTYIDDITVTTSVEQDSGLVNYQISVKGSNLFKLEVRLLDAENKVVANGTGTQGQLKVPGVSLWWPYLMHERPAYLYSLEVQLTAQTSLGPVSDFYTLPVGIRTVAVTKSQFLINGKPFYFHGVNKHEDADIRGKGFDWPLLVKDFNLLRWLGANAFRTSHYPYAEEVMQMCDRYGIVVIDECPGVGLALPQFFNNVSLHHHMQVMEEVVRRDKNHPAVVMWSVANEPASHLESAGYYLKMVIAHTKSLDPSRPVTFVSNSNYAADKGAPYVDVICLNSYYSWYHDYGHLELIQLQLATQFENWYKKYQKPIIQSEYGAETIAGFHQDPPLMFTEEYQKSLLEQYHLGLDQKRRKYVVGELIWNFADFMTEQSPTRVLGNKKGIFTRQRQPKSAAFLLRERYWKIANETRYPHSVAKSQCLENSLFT
Protocol: as §3, §4

HPSE [2] = molecular target: T5, HPSE (Homo sapiens, UniProt Q9Y251); assay: cABPP Assay 1, recombinant HPSE; format: biochemical; settings: 1 h preincubation at 37° C., pH 5.5, 100 nM ABP 7
T5 sequence (Q9Y251 36-109 limits assumed): T2 sequence (Q9Y251 36-109 limits assumed)
T5 sequence (Q9Y251 158-543 limits assumed): T2 sequence (Q9Y251 158-543 limits assumed)

HPSE [3] = molecular target: T5, HPSE; assay: X-ray crystallography, ligand soaking of HPSE crystals; settings: crystal soaking
Excerpt: Xray diffraction data were collected at 100 K at beamlines i03 (HPSE-2, HPSE-3, HPSE-4, EcGUSB-1, BpHep-3), i04 (AcGH79-2, BpHep-2) and i04-1 (Apo-AcGH79, AcGH79-1, AcGH79-3) of the Diamond Light Source UK. Reflections were autoprocessed using the XIA2 pipeline. Complexes were solved by directly refining against their unliganded structures where isomorphous, or else solved by molecular replacement with PHASER (search model PDB accessions: 5E98 (HPSE), 3VNY (AcGH79), 3K46 (EcGUSB), 5BWI (BpHep)). […] Ligand coordinates were built using jLigand. Diagrams were generated using PyMOL.
HPSE—Well diffracting crystals of HPSE were obtained by the sitting-drop vapor-diffusion method at 20° C. using a well solution containing 0.1 M MES pH 5.5, 0.1 M MgCl2, 17% (w/v) PEG 3350, and a protein to well solution ratio of 200 nl:500 nl. Crystals typically appeared after 1 week. Inhibitor ligand complexes were obtained by transferring HPSE crystals to drops of well solution supplemented with 25% (v/v) ethylene glycol and 1-5 mM inhibitor. Crystals were incubated with ligand for ˜2-4 h, then directly harvested and flash-cooled in LN2 for data collection.
To better understand the molecular basis of interaction between our inhibitors and their targets, we turned to X-ray crystallography, using ligand soaking to derivatize enzymes in crystallo.

BpHep and AcGH79 = format: biochemical, B. pseudomallei; A. capsulatum; settings: cABPP Assay 1

Row | Structure (SMILES) | IC50 (rHPSE) [µM] | IC50 (HPSE (platelet)) [µM] | inhibitor concentration down to which HPSE signal is abrogated (HPSE (platelet)) [µM] | effect on GUS signals (GUSB) | HPSE inhibition (abrogation of labelling by ABP 7) (HPSE [2]) | other results
1 | CC(=O)NC1[C@@H](O[C@@H]2C(C(=O)O)C3O[C@H]3C(O)[C@H]2O)OC(CO)[C@@H](OCCCCCCCCNC(=O)CCCCC[N+]2=C(/C=C/C=C/C=C3/N(C)c4ccccc4C3(C)C)C(C)(C)c3ccccc32)[C@@H]1O (stereo partly drawn) [Compound 9, 4-O-(2-N-acetyl-2-deoxy-4-O-(8-amino-Cy5-1-octyl)-α-D-glucopyranosyl)-glucurono-cyclophellitol] | – | – | – | – | – | most substantial off-target (HPSE [1]; 10 μM ABP concentration): serum albumin; HPSE specificity of labelling (HPSE [1]; ABP at 1 μM and 10 μM, lysates of U87, PANC1, SKBR3, MDA-MB-231, HT1080, platelets): markedly improved HPSE specificity compared to both 7 and 8
2 | O=C(O)C1C2O[C@H]2C(O)C(O)[C@@H]1O[C@H]1CC(CO)[C@@H](O)C(O)C1O (stereo in doubt) [Compound 12, 4,5-dihydroxy-3-((2,3,4-trihydroxy-5-(hydroxymethyl)cyclohexyl)oxy)-7-oxabicyclo[4.1.0]heptane-2-carboxylic acid] | 0.5 ± 0.5 | 0.4 ± 0.2 | 2.5 | without altering GUS signals | – | IC50 (AcGH79): 1.2 ± 0.3 µM
3 | O=C(O)C1C2O[C@H]2C(O)C(O)[C@@H]1O[C@@H]1CC(O)[C@H](O)C(CO)O1 (stereo partly drawn) [Compound 4, 4-O-(2-deoxy-D-glucopyranosyl)-glucurono-cyclophellitol] | – | – | – | – | inhibited HPSE at nanomolar concentrations | binding mode in HPSE active site cleft (HPSE [3]): covalent linkages between their pseudo-anomeric carbons and the enzyme nucleophile Glu343
4 | O=C(O)C1C2O[C@H]2C(O)C(O)[C@@H]1O[C@H]1OC(CO)[C@@H](O)C(O)C1O (stereo in doubt) [Compound 13, 4,5-dihydroxy-3-((3,4,5-trihydroxy-6-(hydroxymethyl)tetrahydro-2H-pyran-2-yl)oxy)-7-oxabicyclo[4.1.0]heptane-2-carboxylic acid] | 1 ± 1 | 5 ± 1 | 2.5 | without altering GUS signals | – | inhibitor concentration down to which rHPSE is inactivated (rHPSE; in-gel competitive ABPP): 2 µM
5 | NC1C(O)[C@H](O)C(CO)O[C@@H]1O[C@H]1C(O)C(O)[C@@H]2OC2C1C(=O)O (stereo partly drawn) [Compound 5, 4-O-(2-amino-2-deoxy-D-glucopyranosyl)-glucurono-cyclophellitol] | – | – | – | – | do not inhibit HPSE well | Inhibition of BpHep and AcGH79 (BpHep and AcGH79): all compounds apart from 5 showing activity
6 | [N-]=[N+]=NCC(=O)NC1C(O)[C@H](O)C(CO)O[C@@H]1O[C@H]1C(O)C(O)[C@@H]2OC2C1C(=O)O (stereo partly drawn) [Compound 6, 4-O-(2-N-azidoacetyl-2-deoxy-D-glucopyranosyl)-glucurono-cyclophellitol] | – | – | – | – | do not inhibit HPSE well | –
